What all share (assay): kinome screen (33PanQinase)
Type in all cases: biochemical

One assay has as its target T1, CHK2 (Homo sapiens, UniProt O96017).
T1 construct: purchased Reaction Biology Europe GmbH (formerly ProQinase)
As for the experimental part:
(§1) The Kinome Screening was performed by Reaction Biology Europe GmbH (http://reactionbiology.com; Freiburg i. Br., Germany).

The target in a further assay is T2, JAK2 (Homo sapiens, UniProt O60674).
T2 construct: purchased Reaction Biology Europe GmbH (formerly ProQinase)
T2 sequence (O60674 whole entry): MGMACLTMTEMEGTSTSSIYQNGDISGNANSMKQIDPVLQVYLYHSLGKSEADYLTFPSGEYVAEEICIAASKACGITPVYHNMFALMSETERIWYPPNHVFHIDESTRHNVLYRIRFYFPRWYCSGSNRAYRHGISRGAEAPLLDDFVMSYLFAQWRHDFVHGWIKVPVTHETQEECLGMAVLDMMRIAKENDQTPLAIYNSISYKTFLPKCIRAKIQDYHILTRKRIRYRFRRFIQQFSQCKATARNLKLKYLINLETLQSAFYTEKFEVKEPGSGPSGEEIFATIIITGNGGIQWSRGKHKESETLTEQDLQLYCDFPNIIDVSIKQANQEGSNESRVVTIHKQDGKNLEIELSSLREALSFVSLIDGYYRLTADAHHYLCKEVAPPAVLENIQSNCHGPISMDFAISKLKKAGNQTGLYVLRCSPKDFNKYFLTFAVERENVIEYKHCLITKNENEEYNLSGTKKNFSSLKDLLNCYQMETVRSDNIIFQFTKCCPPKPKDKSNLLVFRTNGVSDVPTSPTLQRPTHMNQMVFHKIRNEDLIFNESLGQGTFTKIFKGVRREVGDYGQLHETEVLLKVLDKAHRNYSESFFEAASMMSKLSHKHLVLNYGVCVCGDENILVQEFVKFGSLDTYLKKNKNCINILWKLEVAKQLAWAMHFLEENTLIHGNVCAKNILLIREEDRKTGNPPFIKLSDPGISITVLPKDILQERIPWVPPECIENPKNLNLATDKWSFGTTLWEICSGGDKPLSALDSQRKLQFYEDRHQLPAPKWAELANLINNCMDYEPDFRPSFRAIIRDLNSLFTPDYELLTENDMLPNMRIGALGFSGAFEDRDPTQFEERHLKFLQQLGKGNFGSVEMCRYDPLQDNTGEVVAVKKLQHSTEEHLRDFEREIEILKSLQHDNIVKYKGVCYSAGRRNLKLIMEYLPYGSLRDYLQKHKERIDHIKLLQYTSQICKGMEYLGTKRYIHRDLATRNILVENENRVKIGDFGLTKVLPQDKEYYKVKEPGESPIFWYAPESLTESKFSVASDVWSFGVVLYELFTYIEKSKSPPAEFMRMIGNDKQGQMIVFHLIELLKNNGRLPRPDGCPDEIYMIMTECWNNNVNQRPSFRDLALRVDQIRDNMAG
The method, then: as §1

For the next assay, the target named is T3, PKCα (Homo sapiens, UniProt P17252).
T3 construct: purchased Reaction Biology Europe GmbH (formerly ProQinase)
As for the experimental part:
as §1

A further assay addresses T4, PKMzeta (Homo sapiens, UniProt Q05513).
T4 construct: PKMzeta; purchased Reaction Biology Europe GmbH (formerly ProQinase)
T4 sequence (Q05513 184-592 limits assumed): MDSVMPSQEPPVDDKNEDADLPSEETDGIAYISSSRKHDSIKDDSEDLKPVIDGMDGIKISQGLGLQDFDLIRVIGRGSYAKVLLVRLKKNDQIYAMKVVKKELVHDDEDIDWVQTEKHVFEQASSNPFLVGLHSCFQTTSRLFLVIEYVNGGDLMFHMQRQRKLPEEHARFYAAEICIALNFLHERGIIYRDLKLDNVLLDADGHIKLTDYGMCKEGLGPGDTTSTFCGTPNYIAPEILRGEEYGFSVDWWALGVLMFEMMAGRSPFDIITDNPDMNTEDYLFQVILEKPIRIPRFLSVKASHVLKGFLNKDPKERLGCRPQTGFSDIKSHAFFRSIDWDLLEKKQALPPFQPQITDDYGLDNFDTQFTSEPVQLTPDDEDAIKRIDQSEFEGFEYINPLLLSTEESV
As for the experimental part:
as §1

Another assay deals with T5, PLK1 (Homo sapiens, UniProt P53350).
T5 construct: purchased Reaction Biology Europe GmbH (formerly ProQinase)
T5 sequence (P53350 whole entry): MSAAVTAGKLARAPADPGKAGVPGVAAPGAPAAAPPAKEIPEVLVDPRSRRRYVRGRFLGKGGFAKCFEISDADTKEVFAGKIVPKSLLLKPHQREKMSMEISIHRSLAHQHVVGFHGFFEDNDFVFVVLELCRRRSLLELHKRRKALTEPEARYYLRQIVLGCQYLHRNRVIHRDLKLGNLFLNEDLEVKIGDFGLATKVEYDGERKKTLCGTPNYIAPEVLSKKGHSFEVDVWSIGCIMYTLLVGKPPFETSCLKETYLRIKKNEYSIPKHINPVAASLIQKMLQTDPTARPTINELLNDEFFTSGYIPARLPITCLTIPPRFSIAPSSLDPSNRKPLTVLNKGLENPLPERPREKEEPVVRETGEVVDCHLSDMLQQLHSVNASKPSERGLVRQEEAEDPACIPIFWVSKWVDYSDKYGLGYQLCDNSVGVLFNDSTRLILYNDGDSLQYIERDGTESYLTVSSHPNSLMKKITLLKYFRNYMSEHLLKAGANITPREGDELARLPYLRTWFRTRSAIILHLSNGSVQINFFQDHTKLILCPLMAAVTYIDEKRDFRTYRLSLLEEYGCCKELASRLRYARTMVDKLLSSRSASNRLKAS
As for the experimental part:
as §1

A further assay deals with T6, SIK2 (Homo sapiens, UniProt Q9H0K1).
T6 construct: purchased Reaction Biology Europe GmbH (formerly ProQinase)
T6 sequence (Q9H0K1 whole entry): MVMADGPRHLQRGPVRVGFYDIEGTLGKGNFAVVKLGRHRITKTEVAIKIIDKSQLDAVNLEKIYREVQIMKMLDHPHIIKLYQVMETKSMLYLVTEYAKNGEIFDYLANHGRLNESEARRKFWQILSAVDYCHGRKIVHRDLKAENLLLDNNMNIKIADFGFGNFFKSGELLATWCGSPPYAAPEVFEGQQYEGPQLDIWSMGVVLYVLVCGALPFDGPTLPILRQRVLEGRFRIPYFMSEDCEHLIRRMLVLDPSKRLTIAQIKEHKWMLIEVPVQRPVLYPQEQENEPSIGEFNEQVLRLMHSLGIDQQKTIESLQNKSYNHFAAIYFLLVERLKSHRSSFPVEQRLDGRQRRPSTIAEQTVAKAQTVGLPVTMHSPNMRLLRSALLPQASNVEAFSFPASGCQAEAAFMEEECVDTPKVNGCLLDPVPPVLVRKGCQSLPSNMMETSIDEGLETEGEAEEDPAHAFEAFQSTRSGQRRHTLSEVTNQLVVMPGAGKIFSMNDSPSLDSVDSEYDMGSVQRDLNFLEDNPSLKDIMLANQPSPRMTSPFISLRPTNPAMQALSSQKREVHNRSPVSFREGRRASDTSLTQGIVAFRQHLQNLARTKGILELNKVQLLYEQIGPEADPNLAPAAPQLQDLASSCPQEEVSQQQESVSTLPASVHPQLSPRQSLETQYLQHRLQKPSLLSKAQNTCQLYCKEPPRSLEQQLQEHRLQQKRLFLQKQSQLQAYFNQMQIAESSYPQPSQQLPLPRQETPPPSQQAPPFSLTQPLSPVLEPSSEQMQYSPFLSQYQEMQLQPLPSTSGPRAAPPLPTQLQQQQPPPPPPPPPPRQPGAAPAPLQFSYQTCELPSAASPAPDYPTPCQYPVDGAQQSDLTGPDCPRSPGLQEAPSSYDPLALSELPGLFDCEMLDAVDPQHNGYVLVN
The method, then: as §1

In the next assay the target is T7, SRPK1 (Homo sapiens, UniProt Q96SB4).
T7 construct: purchased Reaction Biology Europe GmbH (formerly ProQinase)
T7 sequence (Q96SB4 whole entry): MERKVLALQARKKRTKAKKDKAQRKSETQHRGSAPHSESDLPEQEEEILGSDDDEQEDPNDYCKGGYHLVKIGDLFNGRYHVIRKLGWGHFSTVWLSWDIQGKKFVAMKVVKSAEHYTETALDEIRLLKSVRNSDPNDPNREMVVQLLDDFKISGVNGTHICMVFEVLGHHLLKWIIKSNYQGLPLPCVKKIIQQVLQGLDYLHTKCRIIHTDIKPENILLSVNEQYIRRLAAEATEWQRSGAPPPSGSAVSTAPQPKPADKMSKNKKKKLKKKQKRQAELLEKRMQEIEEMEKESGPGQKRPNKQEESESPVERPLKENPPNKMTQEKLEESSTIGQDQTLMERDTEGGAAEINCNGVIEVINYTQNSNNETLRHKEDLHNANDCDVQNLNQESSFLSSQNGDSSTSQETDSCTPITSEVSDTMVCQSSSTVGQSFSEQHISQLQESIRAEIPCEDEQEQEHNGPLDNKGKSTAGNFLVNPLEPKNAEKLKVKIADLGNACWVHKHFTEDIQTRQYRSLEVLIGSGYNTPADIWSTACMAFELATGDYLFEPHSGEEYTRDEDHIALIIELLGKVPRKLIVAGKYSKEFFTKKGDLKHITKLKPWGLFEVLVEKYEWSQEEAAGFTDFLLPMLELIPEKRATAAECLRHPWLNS
The method, then: as §1

A further assay has as its target T8, TGFBR1 (Homo sapiens, UniProt P36897).
T8 construct: purchased Reaction Biology Europe GmbH (formerly ProQinase)
T8 sequence (P36897 34-503): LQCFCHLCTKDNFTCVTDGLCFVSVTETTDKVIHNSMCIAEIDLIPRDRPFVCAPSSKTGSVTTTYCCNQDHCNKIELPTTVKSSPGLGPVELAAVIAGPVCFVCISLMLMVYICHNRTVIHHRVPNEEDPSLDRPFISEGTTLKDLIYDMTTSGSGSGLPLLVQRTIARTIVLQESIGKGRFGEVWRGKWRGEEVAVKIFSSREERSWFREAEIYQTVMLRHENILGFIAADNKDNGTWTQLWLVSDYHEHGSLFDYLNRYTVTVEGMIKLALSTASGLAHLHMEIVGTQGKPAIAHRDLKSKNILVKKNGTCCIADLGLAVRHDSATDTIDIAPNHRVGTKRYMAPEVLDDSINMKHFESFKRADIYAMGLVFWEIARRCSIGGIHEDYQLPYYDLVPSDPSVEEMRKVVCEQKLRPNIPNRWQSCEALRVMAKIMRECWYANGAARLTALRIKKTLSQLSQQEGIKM
As for the experimental part:
as §1

For another assay, the target named is T9, TYRO3 (Homo sapiens, UniProt Q06418).
T9 construct: purchased Reaction Biology Europe GmbH (formerly ProQinase)
T9 sequence (Q06418 41-890): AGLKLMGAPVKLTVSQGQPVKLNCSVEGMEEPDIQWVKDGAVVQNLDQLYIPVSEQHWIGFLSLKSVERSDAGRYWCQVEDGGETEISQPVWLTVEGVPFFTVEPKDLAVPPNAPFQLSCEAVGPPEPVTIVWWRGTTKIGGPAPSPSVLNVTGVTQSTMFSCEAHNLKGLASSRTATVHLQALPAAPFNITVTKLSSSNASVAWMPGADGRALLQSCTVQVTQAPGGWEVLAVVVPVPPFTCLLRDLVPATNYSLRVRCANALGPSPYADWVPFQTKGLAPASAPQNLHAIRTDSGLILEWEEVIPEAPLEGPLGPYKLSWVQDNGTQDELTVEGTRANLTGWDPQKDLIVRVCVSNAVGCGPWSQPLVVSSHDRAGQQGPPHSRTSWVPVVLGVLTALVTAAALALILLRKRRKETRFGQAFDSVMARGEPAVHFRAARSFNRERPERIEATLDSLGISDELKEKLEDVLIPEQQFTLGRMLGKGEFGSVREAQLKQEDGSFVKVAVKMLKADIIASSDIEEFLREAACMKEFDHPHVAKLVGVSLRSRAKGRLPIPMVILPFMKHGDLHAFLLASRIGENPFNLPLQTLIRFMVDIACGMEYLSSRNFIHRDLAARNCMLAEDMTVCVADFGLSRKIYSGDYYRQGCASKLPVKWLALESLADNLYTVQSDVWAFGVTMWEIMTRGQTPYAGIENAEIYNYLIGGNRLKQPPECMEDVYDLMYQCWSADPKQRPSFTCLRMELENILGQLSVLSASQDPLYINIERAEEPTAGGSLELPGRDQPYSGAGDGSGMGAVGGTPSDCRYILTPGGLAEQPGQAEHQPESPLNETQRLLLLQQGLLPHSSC
As for the experimental part:
as §1

T1 sequence (O96017 whole entry): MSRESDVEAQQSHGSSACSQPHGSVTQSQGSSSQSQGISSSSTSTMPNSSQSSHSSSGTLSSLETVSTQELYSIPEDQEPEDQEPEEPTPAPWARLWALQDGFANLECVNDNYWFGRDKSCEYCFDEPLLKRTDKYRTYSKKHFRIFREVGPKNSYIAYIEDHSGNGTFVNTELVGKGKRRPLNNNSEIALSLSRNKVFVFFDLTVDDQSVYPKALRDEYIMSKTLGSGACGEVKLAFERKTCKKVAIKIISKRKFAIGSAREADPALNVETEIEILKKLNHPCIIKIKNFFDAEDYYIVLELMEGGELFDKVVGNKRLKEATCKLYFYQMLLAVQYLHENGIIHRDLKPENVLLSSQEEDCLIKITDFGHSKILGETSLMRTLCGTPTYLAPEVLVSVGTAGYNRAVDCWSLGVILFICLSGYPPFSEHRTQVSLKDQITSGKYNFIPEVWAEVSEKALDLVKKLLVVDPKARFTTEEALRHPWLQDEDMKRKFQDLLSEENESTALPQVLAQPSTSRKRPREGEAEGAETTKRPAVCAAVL

Turning to `c1ccc(CNc2cc(-c3c[nH]c4ncccc34)ccn2)cc1` [meriolin 36], the residual kinase activity at CHK2 (0.3 µM) is listed as 81 % of control; on CHK2 (3 µM), 41 % of control; at JAK2 (0.3 µM) it was 40 % of control; at JAK2 (3 µM), 8 % of control; at PKCα (0.3 µM), 49 % of control; at PKCα (3 µM), 11 % of control. The residual kinase activity is 89 % of control at PKMzeta (0.3 µM); 68 % of control on PKMzeta (3 µM); 100 % of control at PLK1 (0.3 µM); 66 % of control at PLK1 (3 µM); 86 % of control on SIK2 (0.3 µM); 27 % of control at SIK2 (3 µM). In addition, the residual kinase activity was 110 % of control on SRPK1 (0.3 µM); 70 % of control on SRPK1 (3 µM); 18 % of control on TGFBR1 (0.3 µM); 0 % of control at TGFBR1 (3 µM); 94 % of control on TYRO3 (0.3 µM); 64 % of control at TYRO3 (3 µM).

With `COc1ccnc2[nH]cc(-c3cc(N)nc(N)c3)c12` [meriolin 16], the residual kinase activity on CHK2 (0.03 µM) is 90 % of control; on CHK2 (0.3 µM), 82 % of control; at JAK2 (0.03 µM), 102 % of control; on JAK2 (0.3 µM) it was 80 % of control; on PKCα (0.03 µM), 95 % of control; on PKCα (0.3 µM) it was 80 % of control. In addition, the residual kinase activity on PKMzeta (0.03 µM) is reported as 97 % of control; on PKMzeta (0.3 µM) it was 90 % of control; at PLK1 (0.03 µM), 95 % of control; on PLK1 (0.3 µM) it was 90 % of control; at SIK2 (0.03 µM), 96 % of control; on SIK2 (0.3 µM) it was 102 % of control. The residual kinase activity is listed as 108 % of control on SRPK1 (0.03 µM); 99 % of control on SRPK1 (0.3 µM); 65 % of control at TGFBR1 (0.03 µM); 67 % of control on TGFBR1 (0.3 µM); 104 % of control at TYRO3 (0.03 µM); 89 % of control at TYRO3 (0.3 µM).

(Values after article PMC11167047 (Cell Death Discovery, 2024).)
